Measurements published in patent publication US4672055A, “Erythromycin salt with mucosecretolytic and fluidizing activity and pharmaceutical compositions thereof” (priority 1984, dated 1987).
Converted amounts (≈) assume the structure as drawn. Read-outs that look alike come from different tables or passages of the source.

Tests used:
[1] = Acute toxicity (LD50) in the mouse after single oral administration; type: in vivo, mouse (Swiss albine, female); conditions: in vivo, mortality at 14th day, read-out: DL50 (LD50)
Method: (§1) Method for studying LD50 in the mouse after a single oral administration.
(§2) Groups of 10 Swiss albine, female, adult (g.20-22) mice, fasting from the evening preceding the test, are treated by oral way with various doses (4 to 5) of the test drugs, dissolved/suspended in 1% hydroxyethyl cellulose (volume administered : 20ml/kg). Thereafter, the animals are fed again. (Morini MIL fodder for mice)
(§3) The 50% lethal dose (LD50) is calculated by the method of Litchfield, J.T. and Wilcoxon, F. (J. Pharmacol. 96,99-113,1949) by the mortality data as obtained at 14th day after the drug treatment.

[2] = test system: Staph. epiderm clin (strain 4); assay: Antimicrobic in vitro activity, MIC; type: cell-based; conditions: Mueller-Hinton medium
Method: (§4) Microbiologic "in vitro" tests. Tests carried out in order to evaluate the values of the Minimum Inhibiting Concentrations (MIC) are performed by the method of the substrate treated with scalar drugs concentrations, by the "multi-points inoculator" technique.
(§5) As test strains, bacteria from clinical isolation and from international culture collections are tested.
(§6) In the tables, the MIC values (mcg/ml), as obtained employing the Mueller-Hinton medium , are reported.
(§7) The MIC values in the tables refer to readings after 24 and 48 hours at 37° C.
(§8) clin = clinic isolation

Strept. faecalis clin = assay: Antimicrobic in vitro activity, MIC; type: cell-based; conditions: Mueller-Hinton medium
Method: as §4, §5, §6, §7, §8

Cand. albicans clin = assay: Antimicrobic in vitro activity, MIC; type: cell-based; conditions: Mueller-Hinton medium
Method: as §4, §5, §6, §7, §8

[3] = test system: Pseud. aerug. clin (strain 10); assay: Antimicrobic in vitro activity, MIC; type: cell-based; conditions: Mueller-Hinton medium, 24 hours at 37° C.
Method: as §4, §5, §6, §7, §8

[4] = test system: Pseud. aerug. clin (strain 11); assay: Antimicrobic in vitro activity, MIC; type: cell-based; conditions: Mueller-Hinton medium
Method: as §4, §5, §6, §7, §8

[5] = test system: Pseud. aerug. clin (strain 12); assay: Antimicrobic in vitro activity, MIC; type: cell-based; conditions: Mueller-Hinton medium, 24 hours at 37° C.
Method: as §4, §5, §6, §7, §8

Serr. marcescens clin = assay: Antimicrobic in vitro activity, MIC; type: cell-based
Method: as §4, §5, §6, §7, §8

Staph. aureus 14154 = assay: Antimicrobic in vitro activity, MIC; type: cell-based; conditions: Mueller-Hinton medium
Method: as §4, §5, §6, §7
(§9) The strains with 4 figures are of ATCC.

Staph. aureus 6538 = assay: Antimicrobic in vitro activity, MIC; type: cell-based; conditions: Mueller-Hinton medium
Method: as §4, §5, §6, §7, §9

Strept. faecalis 8043 = assay: Antimicrobic in vitro activity, MIC; type: cell-based; conditions: Mueller-Hinton medium
Method: as §4, §5, §6, §7, §9

Proteus vulg. X 19 = assay: Antimicrobic in vitro activity, MIC; type: cell-based
Method: as §4, §5, §6, §7

Esch. coli 418 = assay: Antimicrobic in vitro activity, MIC; type: cell-based; conditions: Mueller-Hinton medium
Method: as §4, §5, §6, §7

bronchial mucus = assay: Fluidizing "in vivo" activity of bronchial mucus of bronchitic rabbits (viscosity); design: species or system rabbit (male); conditions: oral, based on d,l-sobrerol taken equal to 100
Method: A method for studying viscosity of bronchial mucus of a bronchitic rabbit (R. Scuri et al-Il Farmaco, Ed.Pr. 36, 36-48, 1981).
Male rabbits weighing […], made bronchitic by sulphuric acid aerosol treatment according to the method of Cantarelli (G. Cantarelli et al--Il Farmaco, Ed. Pr. 34, 393-416, 1979), are treated with the test drugs and the bronchial mucus is collected by means of a tracheal cannula according to the procedure of R. Scuri (R. Scuri et al -Boll. Chim. Farm. 119, 181-7, 1980). Viscosity of the mucus as withdrawn is studied by using a Contraves RM16 micro viscosimeter and it is recorded by a Rheomat 15T -FC apparatus.
The activity of the compound of formula (I) of this invention is based on the one of d,1-sobrerol, taken equal to 100.

[6] = test system: mucoproduction (bronchial secretion); assay: Bronchosecretagogue activity (mucoproduction) in the rabbit; type: in vivo, rabbit (male brown); conditions: oral, percent increase of mucoproduction, period II vs I, based on d,l-trans-sobrerol taken equal to 100
Method: Method of mucoproduction in the rabbit according to Scuri R. et al, Boll Chim. Farm. 119, 181-7, 1980.
Male brown rabbits weighing 2.8-3.5 kg. are employed. To said animals, by surgical operation under anaesthesia, a T shaped tracheal cannula is applied, as described in the bibliographic reference mentioned above.
To the cannula, a container (a polyproylene 2 ml test tube) is applied for periodical collection of the bronchial secretion. The study of mucoproduction started at the fourth day after the operation, is divided into two 4 hour periods for collecting and measuring the mucus, and exactly from 8:30 to 12:30 (I) and from 12:30 to 16:30 (II).
The activity of each drug is tested by administering the same by oesophageal way (os) at the begining of the II period and by evaluating the percent increase of mucoproduction (weight of the mucus as collected) over the II period as compared to the I period.
The activity of the compound of formula (I), of the present invention, is based on the d,1-trans-sobrerol one, taken equal to 100.

mouse = assay: Acute toxicity (LD50) in the mouse after single oral administration; type: in vivo, mouse (Swiss albine, female); conditions: mortality at 14th day
Method: as §1, §2, §3

[7] = Pharmacokinetics: plasma levels of erythromycin after oral administration; type: in vivo, Wistar rats
Method: (§10) Two groups of Wistar rats (180-270g.) are utilized. To the first group the compound of formula (I) of this invention, orally (transoesophageal intubation) at the dose of 800mg/kg, is administered, whilst to the second, again by the oral way, 585 mg/kg of erythromycin are administered.
(§11) Before treatment the rats were fasting for about 15 hours and were allowed to drink ad libitum. In both cases at 0.5 h; 1h;1.5 h; 2h; 3h; 4h; 6h from administration 5 rats/time are sacrificed. The blood as collected in test tubes containing sodium heparin is centrifuged and the plasma so obtained is utilized for the quantitative analysis of erythromycin by means of the micorbiologic standard method, using Staphylococcus aureus as a test organisum (P.G. Welling and W.A. Craig, J. Pharm. Sci. 67, 1057 (1978)).

[8] = Pharmacokinetics: erythromycin in lungs after oral administration; type: in vivo; conditions: Wistar rats, single oral 800 mg/kg vs erythromycin 585 mg/kg; lung homogenate
Method: as §10, §11
From the same rats, in similar manner, the lungs are withdrawn and, after homogenizing the tissue, the erythromycin rates are evaluated.

[9] = 24 hours at 37° C., read-out: MIC
[10] = 48 hours at 37° C., read-out: MIC
[11] = Mueller-Hinton medium, 24 hours at 37° C.
[12] = Mueller-Hinton medium, 48 hours at 37° C.

Compound: CC[C@H]1OC(=O)[C@H](C)[C@@H](O[C@H]2C[C@@](C)(OC)[C@@H](O)[C@H](C)O2)[C@H](C)[C@@H](O[C@@H]2O[C@H](C)C[C@H](N(C)C)[C@H]2O)[C@](C)(O)C[C@@H](C)C(=O)[C@H](C)[C@@H](O)[C@]1(C)O [erythromycin]
- LD50 at 336 h [1]: > 5000 mg/kg
- MIC [2, 9]: 10 µg/mL (≈ 13.6 µM)
- MIC [2, 10]: 10 µg/mL (≈ 13.6 µM)
- MIC (Strept. faecalis clin; Enterococcus faecalis, 24 hours at 37° C., read-out: MIC): 0.3 µg/mL (≈ 0.409 µM)
- MIC (Strept. faecalis clin; Enterococcus faecalis, 48 hours at 37° C., read-out: MIC): 0.3 µg/mL (≈ 0.409 µM)
- MIC (Cand. albicans clin; Candida albicans, 24 hours at 37° C., read-out: MIC): 100 µg/mL (≈ 136 µM)
- MIC (Cand. albicans clin; Candida albicans, 48 hours at 37° C., read-out: MIC): 100 µg/mL (≈ 136 µM)
- MIC ([3]; read-out: MIC): > 100 µg/mL
- MIC [4, 9]: 100 µg/mL (≈ 136 µM)
- MIC [4, 10]: 100 µg/mL (≈ 136 µM)
- MIC ([5]; read-out: MIC): > 100 µg/mL
- MIC (Serr. marcescens clin; Serratia marcescens, 24 h): 45 µg/mL (≈ 61.3 µM)
- MIC (Serr. marcescens clin; Serratia marcescens, 48 h): 50 µg/mL (≈ 68.1 µM)
- MIC (Staph. aureus 14154; Staphylococcus aureus, 14154, 24 hours at 37° C., read-out: MIC): 10 µg/mL (≈ 13.6 µM)
- MIC (Staph. aureus 14154; Staphylococcus aureus, 14154, 48 hours at 37° C., read-out: MIC): 10 µg/mL (≈ 13.6 µM)
- MIC (Staph. aureus 6538; Staphylococcus aureus, 6538, 24 hours at 37° C., read-out: MIC): 10 µg/mL (≈ 13.6 µM)
- MIC (Staph. aureus 6538; Staphylococcus aureus, 6538, 48 hours at 37° C., read-out: MIC): 10 µg/mL (≈ 13.6 µM)
- MIC (Strept. faecalis 8043; Enterococcus faecalis, 8043, 24 hours at 37° C., read-out: MIC): 0.3 µg/mL (≈ 0.409 µM)
- MIC (Strept. faecalis 8043; Enterococcus faecalis, 8043, 48 hours at 37° C., read-out: MIC): 0.3 µg/mL (≈ 0.409 µM)
- MIC (Proteus vulg. X 19; 24 h): 2.5 µg/mL (≈ 3.41 µM)
- MIC (Proteus vulg. X 19; 48 h): 2.5 µg/mL (≈ 3.41 µM)
- MIC (Esch. coli 418; Escherichia coli, 418, 24 hours at 37° C., read-out: MIC): 25 µg/mL (≈ 34.1 µM)
- MIC (Esch. coli 418; Escherichia coli, 418, 48 hours at 37° C., read-out: MIC): 25 µg/mL (≈ 34.1 µM)
- Fluidizing in vivo activity (relative to d,l-sobrerol = 100) (bronchial mucus): 0
- Bronchosecretagogue activity (relative to d,l-trans-sobrerol = 100) [6]: 0

Compound: CC1=CC[C@@H](C(C)(C)O)C[C@@H]1O (relative stereo) [d,l-trans-sobrerol]
- LD50 at 336 h [1]: 2340 mg/kg
- Fluidizing in vivo activity (relative to d,l-sobrerol = 100) (bronchial mucus): 100
- Bronchosecretagogue activity (relative to d,l-trans-sobrerol = 100) [6]: 100

Compound: Erythromycinsalt of 5-(3-carboxy-1-oxopropoxy)-α, α 4-trimethyl-3-cyclohexene-1-methanol [CO/1311]
- DL50 (LD50) (mouse): 4322.3 mg/kg
- MIC ([2]; 24 hours at 37° C.): 10 µg/mL
- MIC ([2]; 48 hours at 37° C.): 10 µg/mL
- MIC (Strept. faecalis clin; 24 hours at 37° C.): 0.4 µg/mL
- MIC (Strept. faecalis clin; 48 hours at 37° C.): 0.4 µg/mL
- MIC (Cand. albicans clin; 24 hours at 37° C.): 100 µg/mL
- MIC (Cand. albicans clin; 48 hours at 37° C.): 100 µg/mL
- MIC [3]: > 100 µg/mL
- MIC ([4]; 24 hours at 37° C.): 100 µg/mL
- MIC ([4]; 48 hours at 37° C.): 100 µg/mL
- MIC [5]: > 100 µg/mL
- MIC (Serr. marcescens clin; [11]): 50 µg/mL
- MIC (Serr. marcescens clin; [12]): 50 µg/mL
- MIC (Staph. aureus 14154; 24 hours at 37° C.): 10 µg/mL
- MIC (Staph. aureus 14154; 48 hours at 37° C.): 10 µg/mL
- MIC (Staph. aureus 6538; 24 hours at 37° C.): 10 µg/mL
- MIC (Staph. aureus 6538; 48 hours at 37° C.): 10 µg/mL
- MIC (Strept. faecalis 8043; 24 hours at 37° C.): 0.3 µg/mL
- MIC (Strept. faecalis 8043; 48 hours at 37° C.): 0.3 µg/mL
- MIC (Proteus vulg. X 19; [11]): 2.5 µg/mL
- MIC (Proteus vulg. X 19; [12]): 2.5 µg/mL
- MIC (Esch. coli 418; 24 hours at 37° C.): 25 µg/mL
- MIC (Esch. coli 418; 48 hours at 37° C.): 25 µg/mL
- plasmatic levels of erythromycin vs equidose erythromycin administration ([7]; Wistar rats, single oral 800 mg/kg vs erythromycin 585 mg/kg, 0.5-6 h, microbiologic assay): significantly higher
- bioavailability of erythromycin vs the antibiotic administered as such ([7]; rat, in vivo): improved bioavailability
- Fluidizing in vivo activity (relative to d,l-sobrerol = 100) (bronchial mucus): 132
- erythromycin rates in lungs vs erythromycin administration [8]: significantly higher
- Bronchosecretagogue activity (relative to d,l-trans-sobrerol = 100) [6]: 140
